Measurements as given in patent US12508300B2, “Acylated GLP-1 derivative” (Sciwind Biosciences Co., Ltd., priority 2019, dated 2025).
Read-outs that look alike come from different tables or passages of the source. *1 amine or outer side, *2 acyl side, *3 side chain or, on linkers, in order; H or OH if unused. Where a SMILES comes first, the peptide text is derived from it. Side-chain parts run from the residue outwards. The star is where a group is joined. C18 diacid = O=C(O)CCCCCCCCCCCCCCCCC(=O)*; γGlu = O=C(O)[C@H](CCC(=O)[*:2])N[*:1]; AEEA = NCCOCCOCC(=O)O

Test system: CD-1 mice
Assay type: in vivo
Settings: mouse, in vivo, sc, 0.15 mg/kg
Experimental: Twenty-eight healthy female CD-1 mice aged 4-6 weeks are selected and divided into 4 groups, and they are injected subcutaneously with M4, M5, M7 and M0 at a dose of 0.15 mg/kg body weight.

With `CC[C@H](C)[C@H](NC(=O)[C@H](Cc1ccccc1)NC(=O)[C@H](CCC(=O)O)NC(=O)[C@H](CCCNC(=N)N)NC(=O)[C@H](C)NC(=O)[C@H](C)NC(=O)[C@H](CCCCNC(=O)COCCOCCNC(=O)COCCOCCNC(=O)CC[C@H](NC(=O)CCCCCCCCCCCCCCCCC(=O)O)C(=O)O)NC(=O)[C@H](CCC(=O)O)NC(=O)[C@H](CCC(=O)O)NC(=O)[C@H](CC(C)C)NC(=O)[C@H](Cc1ccc(O)cc1)NC(=O)[C@H](CO)NC(=O)[C@H](CO)NC(=O)[C@@H](NC(=O)[C@H](CC(=O)O)NC(=O)[C@H](CO)NC(=O)[C@@H](NC(=O)[C@H](Cc1ccccc1)NC(=O)[C@@H](NC(=O)CNC(=O)[C@H](CCC(=O)O)NC(=O)[C@@H](NC(=O)[C@@H](N)Cc1c[nH]cn1)C(C)C)[C@@H](C)O)[C@@H](C)O)C(C)C)C(=O)N[C@@H](C)C(=O)N[C@@H](Cc1c[nH]c2ccccc12)C(=O)N[C@@H](CC(C)C)C(=O)N[C@H](C(=O)N[C@@H](CCCNC(=N)N)C(=O)NCC(=O)N[C@@H](CCCNC(=N)N)C(=O)NCC(=O)O)C(C)C` [M2, N-ε^23-[2-(2-[2-(2-[2-(2-[4-(17-carboxyheptadecanoylamino)-4(s)-carboxybutyrylamino]ethoxy)ethoxy]acetylamino)ethoxy]ethoxy)acetyl](Val^8Glu^22Lys^23Arg^26,34-GLP-1 (7-37)) peptide] (H-HVEGTFTSDVSSYLEEK([AEEA-AEEA-γGlu-C18 diacid])AAREFIAWLVRGRG-OH; N-terminus and C-terminus assumed) the “Inhibition rate (blood glucose)” value (6 h) was 34.29%, the “Inhibition rate (blood glucose)” value (30 h) was 29.51% and the “Inhibition rate (blood glucose)” value (54 h) was 27.23%. For the same compound, the “Inhibition rate (blood glucose)” value (78 h) was 21.97% and the “Inhibition rate (blood glucose)” value (102 h) was 10.15%.
